These results are taken from PMC10518421, “Zebrafish as model system for the biological characterization of CK1 inhibitors” (Frontiers in Pharmacology, 2023).

The pIC50 is the negative decadic logarithm of the IC50, by convention in mol/L.

One data set has as its system zebrafish embryos. The conditions noted are these: for phenotype of treated zebrafish embryos: 24 to 72 hpf (48 h); for dose dependence of phenotype: 5, 10, 20 and 40 µM, 48 h of incubation.
A further data set has as its system CK1δ. The conditions noted are these: prior to standardization, ref García-Reyes et al., 2018; cited from earlier work.
The target in a further data set is T1, GST-humCK1δ^TV1 (Homo sapiens, UniProt P48730).
T1 construct: made in house; host or cells: E. coli Rosetta 2 (DE3)
The experiment in a line: in vitro kinase assay, α-casein phosphorylation with [γ-32P]-ATP, standard conditions. In kind it is biochemical. The conditions noted are these: 20 µM inhibitor, normalized to DMSO control. As to the method: (§1) Each in vitro kinase reaction was performed in a total volume of 15 µL containing 25 mM Tris-HCl (pH 7.0), 10 mM MgCl2, 100 µM EDTA, 2.8 µM of the substrate α-casein and 0.4 pmol [γ-^32P]-ATP at 30°C. […] Reactions were stopped by adding 3 µL of 5x SDS loading buffer and incubating at 95°C for 5 min. Proteins were separated by SDS-PAGE and stained with Coomassie Brilliant Blue R250 (Waldeck GmbH & Co. KG, Muenster, Germany). Autoradiography visualized the incorporation of radioactively labelled γ-phosphate into the proteins. A quantitative analysis of the radioactive signal was performed by excising the proteins from dried gels and measuring phosphate incorporation via Cherenkov counting (Beckmann Scintillation Counter). For the determination of the initial velocity region, a linear regression was performed. Thereby, the number of included data-points was decreased stepwise, and the point of time with the highest maximum coefficient of determination (R ^2) was chosen as the kinase-specific standard reaction time. For determination of the maximal velocity (Vmax) and Michaelis constant (Km) of ATP, various ATP concentrations in a range from 0.5 to 250 µM were tested. Raw data was used for the calculation of enzyme velocity (V) in [pmol/min]. Then, V was plotted over substrate (ATP) concentration and fitted to the Michaelis-Menten model via GraphPad Prism 8 (GraphPad Software, La Jolla, CA, United States). According to the Michaelis-Menten curve, Km, which is the concentration of the substrate, that is needed to obtain half Vmax, was calculated. For determination of IC50 values, the scintillation data measured in cpm was transformed to pmol of transferred phosphate. The data was then transformed logarithmically (X = log(X)), normalized to DMSO (100%) and zero (0%) before fitting to sigmoidal dose-response curves with variable slope with nonlinear regression using GraphPad Prism 7.
(§2) In compliance with the established standard conditions the kinase assays were performed in the presence of 20 µM of the respective inhibitor (Figure 7).
(§3) Next, in vitro kinase assays were performed in absence and presence of the respective SMI at different concentrations (ranging from 13 to 26667 nM). The kinase activity of the inhibitor-treated samples was normalized to the DMSO-control and plotted against the inhibitor concentration (Figure 10).

The target in a further data set is T2, His-DrCK1δA (Danio rerio, UniProt Q7T2E3).
T2 construct: made in house; host or cells: E. coli Rosetta 2 (DE3)
T2 sequence (Q7T2E3 1-403): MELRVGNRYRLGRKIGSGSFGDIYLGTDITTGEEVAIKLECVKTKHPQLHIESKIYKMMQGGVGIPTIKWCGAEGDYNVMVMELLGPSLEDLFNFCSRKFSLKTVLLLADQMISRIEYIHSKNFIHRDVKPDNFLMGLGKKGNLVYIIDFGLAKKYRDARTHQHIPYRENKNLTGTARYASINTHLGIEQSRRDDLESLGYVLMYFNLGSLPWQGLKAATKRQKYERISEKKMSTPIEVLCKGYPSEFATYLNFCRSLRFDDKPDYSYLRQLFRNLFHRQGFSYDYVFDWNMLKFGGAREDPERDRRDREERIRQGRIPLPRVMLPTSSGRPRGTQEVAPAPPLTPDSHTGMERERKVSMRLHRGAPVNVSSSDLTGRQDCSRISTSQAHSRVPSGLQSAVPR
Described as above. In kind it is biochemical, zebrafish (Danio rerio). The note with it: 20 µM inhibitor, normalized to DMSO control. As to the method: as §1, §2, §3

The target of a further data set is T3, His-DrCK1δB (Danio rerio, UniProt Q6P3K7).
T3 construct: made in house; host or cells: E. coli Rosetta 2 (DE3)
T3 sequence (Q6P3K7 1-409): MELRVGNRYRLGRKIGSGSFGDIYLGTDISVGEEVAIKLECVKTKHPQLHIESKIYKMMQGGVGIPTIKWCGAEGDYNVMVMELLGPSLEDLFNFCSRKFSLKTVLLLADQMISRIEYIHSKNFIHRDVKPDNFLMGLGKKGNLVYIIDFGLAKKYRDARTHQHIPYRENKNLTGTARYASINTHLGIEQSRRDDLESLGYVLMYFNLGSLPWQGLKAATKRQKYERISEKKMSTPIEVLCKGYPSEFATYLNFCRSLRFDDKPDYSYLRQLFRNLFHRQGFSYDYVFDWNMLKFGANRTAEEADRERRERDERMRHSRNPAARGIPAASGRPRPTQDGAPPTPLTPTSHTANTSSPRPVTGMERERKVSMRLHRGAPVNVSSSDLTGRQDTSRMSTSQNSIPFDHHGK
The data set is described as above. In kind it is biochemical, zebrafish (Danio rerio). The note with it: 20 µM inhibitor, normalized to DMSO control. How it is done:
as §1, §2, §3

For a further data set, the system named is His-DrCK1ε. The description is as above. In kind it is biochemical, zebrafish (Danio rerio). The note with it: 20 µM inhibitor, normalized to DMSO control. How it is done:
as §1, §2

Another data set deals with T4, GST-CK1ε (Homo sapiens, UniProt P49674).
T4 construct: made in house; host or cells: E. coli Rosetta 2 (DE3)
The data set is described as above. In kind it is biochemical. The conditions noted are these: 20 µM inhibitor, normalized to DMSO control. How it is done: as §1, §2

The target in another data set is CK1δ (TV1) (Homo sapiens, UniProt P48730). The experiment in a line: initial IC50 determination in in vitro kinase assays, prior to standardization. In kind it is biochemical. The conditions noted are these: not published. As to the method:
The SMIs used in this study (summarized in Supplementary Table S2) were selected based on their inhibitory capacity toward CK1δ in vitro, whereby a broad range of inhibitors with varying efficiency were included. The determination of IC50-values was conducted prior to the standardization workflow establishment. Zebrafish embryos treated with 20 µM of the respective compound were phenotypically analyzed.
Supplementary Table 6: List of the inhibitors that were selected for the in vivo screening of zebrafish embryonic development. The compounds were selected based on their ability to inhibit CK1δ in in vitro kinase assays. The initial IC50-values were determined prior to the establishment of the standardized in vitro kinase assay protocol. The Supplementary Table summarizes, whether the zebrafish embryos presented an abnormal phenotype upon inhibitor treatment. The inhibitors were added to the zebrafish medium in a concentration of 20 µM.

For another data set, the system named is csnk1db (CK1δB). The experiment in a line: morpholino knockdown in zebrafish embryos, phenotype. Type of data set: in vivo, zebrafish (D. rerio). The conditions noted are these: 300 µM injected, 72 hpf. From the text: The TüAB wildtype strain was used for all experiments. […] DMSO served as solvent control. […] Embryos were immobilized in 2.5% methylcellulose.

pIC50: −log10 of the molar value. Entries after “also recorded” stand apart in the source; their conditions may differ. Like-named read-outs stand apart in the source and are kept apart here.

Chain of CK1δ (TV1) (P48730 whole entry): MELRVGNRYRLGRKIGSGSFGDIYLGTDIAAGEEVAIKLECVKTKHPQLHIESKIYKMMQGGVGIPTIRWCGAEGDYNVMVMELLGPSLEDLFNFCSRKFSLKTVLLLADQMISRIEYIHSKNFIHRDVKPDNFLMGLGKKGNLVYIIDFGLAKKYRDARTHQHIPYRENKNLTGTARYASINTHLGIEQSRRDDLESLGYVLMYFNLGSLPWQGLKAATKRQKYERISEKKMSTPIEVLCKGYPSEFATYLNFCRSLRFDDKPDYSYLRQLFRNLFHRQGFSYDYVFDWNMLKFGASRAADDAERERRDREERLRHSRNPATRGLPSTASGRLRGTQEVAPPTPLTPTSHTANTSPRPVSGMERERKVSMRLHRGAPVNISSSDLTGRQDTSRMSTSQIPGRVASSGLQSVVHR
T4 sequence (P49674 whole entry): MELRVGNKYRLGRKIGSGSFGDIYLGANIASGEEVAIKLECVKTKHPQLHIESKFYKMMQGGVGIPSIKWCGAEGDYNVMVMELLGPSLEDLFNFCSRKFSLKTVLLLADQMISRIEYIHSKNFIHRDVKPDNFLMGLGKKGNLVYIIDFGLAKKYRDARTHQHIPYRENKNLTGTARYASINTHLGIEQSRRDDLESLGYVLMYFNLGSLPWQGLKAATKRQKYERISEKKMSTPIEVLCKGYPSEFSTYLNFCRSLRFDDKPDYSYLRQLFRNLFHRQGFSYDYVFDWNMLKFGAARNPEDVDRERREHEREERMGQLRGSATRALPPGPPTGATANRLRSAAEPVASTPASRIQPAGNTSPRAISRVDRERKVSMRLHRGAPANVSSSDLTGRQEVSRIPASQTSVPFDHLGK
T1 sequence (P48730 whole entry): as the sequence (P48730 whole entry) above

In the case of `O=C(CSc1nc2c(c(=O)n1-c1ccccc1)SCC2)Nc1nc2ccc(C(F)(F)F)cc2s1` [G1-1], in the data set on zebrafish embryos (zebrafish, in vivo), the Phenotypic changes result is reported as “Mild bradycardia” and the “Phenotypic changes (with severity) after treatment of zebrafish embryos with 20 µM inhibitor” value (from here on “Phenotypic changes … with 20 µM inhibitor”) is listed as “Yes (mild)”. Also, the negative logarithm of the IC50 (pIC50) with CK1δ is 6.18.

`O=C(CSc1nc2c(c(=O)n1Cc1ccc(C(F)(F)F)cc1)SCC2)Nc1nc2ccc(C(F)(F)F)cc2s1` [G1-3]: in the data set with zebrafish embryos (zebrafish, in vivo), the Phenotypic changes entry is recorded as “None observed” and the “Phenotypic changes … with 20 µM inhibitor” value is recorded as “No”. Moreover, the pIC50 with CK1δ is 6.48.

With `COc1ccccc1-n1c(SCC(=O)Nc2nc3ccc(C(F)(F)F)cc3s2)nccc1=O` [G2-4, 2-((3-(2-Methoxyphenyl)-4-oxo-3,4-dihydropyrimidin-2-yl)thio)-N-(6-(trifluormethyl)benzo[d]thiazol-2-yl)acetamid], the “mean residual kinase activity ± SD” value at GST-humCK1δ^TV1 was determined as 3.2 ± 0.3%; on His-DrCK1δA, 7.6 ± 1.2%; at His-DrCK1δB, 6.3 ± 0.8%; in the data set on His-DrCK1ε it was 11.3 ± 3.3%; at GST-CK1ε, 8.6 ± 1.6%. The “phenotype of treated zebrafish embryos” value with zebrafish embryos (5 µM) was “mild phenotype with a minor blood congestion”; in the data set with zebrafish embryos (10 µM), “weakly beating ventricle and a pericardial edema”; in the data set on zebrafish embryos (20 µM), “strong cardiac phenotype, with blood congestion, a strong bradycardia and partially total loss of heart beat; also recorded: severe effects on the embryonic development, with strong bradycardia and blood congestion; also recorded: pericardial edema; also recorded: almost not beating”; in the data set on zebrafish embryos (40 µM) it was “bradycardia, a loss of ventricular beating and as a result pericardial edema”. The “Phenotypic changes … with 20 µM inhibitor” value in the data set with zebrafish embryos (20 µM in medium, from 24 hpf) was “Yes (severe)”. The “dose dependence of phenotype” value in the data set on zebrafish embryos is reported as “increasingly severe cardiac malfunctions with increasing compound concentrations”. The compound also showed a pIC50 against CK1δ (TV1) of 6.01.

`COc1ccc(-n2c(SCC(=O)Nc3nc4ccc(C(F)(F)F)cc4s3)nccc2=O)cc1` [G2-5, 2-((3-(4-Methoxyphenyl)-4-oxo-3,4-dihydropyrimidin-2-yl)thio)-N-(6-(trifluormethyl)benzo[d]thiazol-2-yl)acetamid]: the “Phenotypic changes … with 20 µM inhibitor” value with zebrafish embryos (20 µM in medium, from 24 hpf) is given as “No”. The “phenotype of treated zebrafish embryos” value in the data set with zebrafish embryos (20 µM) is on record as “no effect on zebrafish development or heart function; also recorded: did not show a phenotypic effect”. At CK1δ (TV1), this compound had a pIC50 of 6.08.

On to `COc1cccc(-n2c(SCC(=O)Nc3nc4ccc(C(F)(F)F)cc4s3)nccc2=O)c1` [G2-6, 2-((3-(3-Methoxyphenyl)-4-oxo-3,4-dihydropyrimidin-2-yl)thio)-N-(6-(trifluormethyl)benzo[d]thiazol-2-yl)acetamid], for which the “mean residual kinase activity ± SD” value on GST-humCK1δ^TV1 stood at 9.1 ± 1.6%; at His-DrCK1δA, 11.9 ± 3.2%; at His-DrCK1δB it was 10.0 ± 1.3%; in the data set on His-DrCK1ε, 25.5 ± 10.7%; at GST-CK1ε, 18.0 ± 4.8%. Further, the “phenotype of treated zebrafish embryos” value in the data set on zebrafish embryos (5 µM) is “cardiac phenotype, with bradycardia and blood congestion, resulting in cardiac edema”; with zebrafish embryos (10 µM), “blood congestion and pericardial edema”; with zebrafish embryos (20 µM), “strong cardiac phenotype, with blood congestion, a strong bradycardia and partially total loss of heart beat; also recorded: severe effects on the embryonic development, with strong bradycardia and blood congestion; also recorded: blood congestions; also recorded: pericardial edema”; in the data set on zebrafish embryos (40 µM), “bradycardia, a loss of ventricular beating and as a result pericardial edema”. For the same compound, the “Phenotypic changes … with 20 µM inhibitor” value in the data set on zebrafish embryos (20 µM in medium, from 24 hpf) is recorded as “Yes (severe)”. Moreover, the “dose dependence of phenotype” value in the data set with zebrafish embryos is “increasingly severe cardiac malfunctions with increasing compound concentrations”. The compound also showed a pIC50 at CK1δ (TV1) of 5.85.

Take “csnk1db morpholino: morpholino-modified antisense oligonucleotide targeting the translational start site of csnk1db, 5′-CTGTTTCCAACTCGTAGCTCCATTG-3′ (all phosphorodiamidate morpholino (PMO))”: the results for the “phenotype of morpholino injected embryos” value in the data set with csnk1db (CK1δB), in the data set with csnk1db (CK1δB) (listed as csnk1db) and with csnk1db (CK1δB) (listed as csnk1db Morpholino) were “reduced heart function resulting in blood congestion”, “cardiac malfunction; also recorded: slightly curved body axis” and “reduced heart function”, respectively.
